In PubChem BioAssay AID256 (DTP/NCI, 2004):
Where “and” joins values, the source holds several entries; their conditions need not be identical. Equal values may be shown once. Inconclusive results and toxic doses are left out. How the source made its calls: active means survival T/C of 150% or more; inactive means T/C below 125% in these data.

Tested on: CD2F1 mice, L1210 leukemia ip, survival T/C
Experiment: NCI In Vivo Anticancer Drug Screen. Data for tumor model L1210 Leukemia (intraperitoneal) in CD2F1 (CDF1) mice
Conditions: higher = longer survival
In short: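 In this screen, transplantable tumors were grown in mice given either the compound or its vehicle. Results were expressed as the treated measurement relative to the control measurement.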

[1] = endpoint: mean survival time, dose: 100.0 mg/kg/injection, schedule: Q04DX003 (ip), vehicle: saline with Tween-80
[2] = endpoint: mean survival time, dose: 200.0 mg/kg/injection, schedule: Q04DX003 (ip), vehicle: saline with Tween-80
[3] = endpoint: mean survival time, dose: 100.0 mg/kg/injection, schedule: Q01DX009 (ip), vehicle: saline
[4] = endpoint: mean survival time, dose: 100.0 mg/kg/injection, schedule: Q04DX003 (ip), vehicle: saline
[5] = endpoint: mean survival time, dose: 200.0 mg/kg/injection, schedule: Q01DX009 (ip), vehicle: saline
[6] = endpoint: mean survival time, dose: 200.0 mg/kg/injection, schedule: Q04DX003 (ip), vehicle: saline
[7] = endpoint: mean survival time, dose: 400.0 mg/kg/injection, schedule: Q04DX003 (ip), vehicle: saline with Tween-80
[8] = endpoint: mean survival time, dose: 50.0 mg/kg/injection, schedule: Q04DX002 (ip), vehicle: saline with Tween-80
[9] = endpoint: mean survival time, dose: 100.0 mg/kg/injection, schedule: Q01DX001 (ip), vehicle: Klucel (hydroxypropylcellulose) (HPC)
[10] = endpoint: mean survival time, dose: 200.0 mg/kg/injection, schedule: Q01DX001 (ip), vehicle: Klucel (hydroxypropylcellulose) (HPC)
[11] = endpoint: mean survival time, dose: 400.0 mg/kg/injection, schedule: Q01DX001 (ip), vehicle: Klucel (hydroxypropylcellulose) (HPC)
[12] = endpoint: mean survival time, dose: 100.0 mg/kg/injection, schedule: Q01DX009 (ip), vehicle: saline with Tween-80
[13] = endpoint: mean survival time, dose: 200.0 mg/kg/injection, schedule: Q01DX009 (ip), vehicle: saline with Tween-80
[14] = endpoint: mean survival time, dose: 400.0 mg/kg/injection, schedule: Q01DX009 (ip), vehicle: saline with Tween-80
[15] = endpoint: mean survival time, dose: 50.0 mg/kg/injection, schedule: Q01DX009 (ip), vehicle: saline with Tween-80

Measured: T/C

CCC(=O)Sc1ccccc1C(=O)Nc1ccc(Cl)cc1
inactive: endpoint: median survival time, dose: 25.0 mg/kg/injection, schedule: Q01DX009 (ip), vehicle: saline with Tween-80 112 % of control | endpoint: median survival time, dose: 50.0 mg/kg/injection, schedule: Q01DX009 (ip), vehicle: saline with Tween-80 111 % of control | endpoint: median survival time, dose: 100.0 mg/kg/injection, schedule: Q01DX009 (ip), vehicle: saline with Tween-80 107 % of control | endpoint: median survival time, dose: 200.0 mg/kg/injection, schedule: Q01DX009 (ip), vehicle: saline with Tween-80 112 % of control | endpoint: median survival time, dose: 400.0 mg/kg/injection, schedule: Q01DX009 (ip), vehicle: saline with Tween-80 86 % of control

CCCCCCCc1c(C)c2ccc(OC)cc2[nH]c1=O
inactive: [1] 95 % of control | [2] 90 % of control

CS(=O)(=O)OCC(O)C(O)COS(C)(=O)=O (stereo not given)
inactive: endpoint: mean survival time, dose: 50.0 mg/kg/injection, schedule: Q01DX007 (ip), vehicle: saline 107 % of control | endpoint: mean survival time, dose: 50.0 mg/kg/injection, schedule: Q01DX009 (ip), vehicle: saline 101 % of control | endpoint: mean survival time, dose: 50.0 mg/kg/injection, schedule: Q03DX003 (ip), vehicle: saline 104 % of control | endpoint: mean survival time, dose: 50.0 mg/kg/injection, schedule: Q04DX003 (ip), vehicle: saline 103 % of control | endpoint: mean survival time, dose: 100.0 mg/kg/injection, schedule: Q01DX007 (ip), vehicle: saline 104 % of control | endpoint: mean survival time, dose: 100.0 mg/kg/injection, schedule: Q01DX009 (ip), vehicle: saline sonified 102 % of control | [3] 104 % of control | endpoint: mean survival time, dose: 100.0 mg/kg/injection, schedule: Q03DX003 (ip), vehicle: saline 104 % of control | endpoint: mean survival time, dose: 100.0 mg/kg/injection, schedule: Q04DX003 (ip), vehicle: saline sonified 100 % of control | [4] 100 % of control | endpoint: mean survival time, dose: 200.0 mg/kg/injection, schedule: Q01DX007 (ip), vehicle: saline 105 % of control | endpoint: mean survival time, dose: 200.0 mg/kg/injection, schedule: Q01DX009 (ip), vehicle: saline sonified 96 % of control | [5] 106 % of control | endpoint: mean survival time, dose: 200.0 mg/kg/injection, schedule: Q03DX003 (ip), vehicle: saline 102 % of control | endpoint: mean survival time, dose: 200.0 mg/kg/injection, schedule: Q04DX003 (ip), vehicle: saline sonified 108 % of control | [6] 114 % of control | endpoint: mean survival time, dose: 400.0 mg/kg/injection, schedule: Q01DX009 (ip), vehicle: saline sonified 100 % of control | endpoint: mean survival time, dose: 400.0 mg/kg/injection, schedule: Q04DX003 (ip), vehicle: saline sonified 102 % of control

CCCCC(CC)C(O)CC(O)CC (stereo not given)
inactive: [1] 92 % of control | [2] 91 % of control | [7] 91 % of control

C=CCOC(=O)CCN1CC1
inactive: endpoint: mean survival time, dose: 0.5 mg/kg/injection, schedule: Q01DX009 (ip), vehicle: saline with Tween-80 106 % of control | endpoint: mean survival time, dose: 1.0 mg/kg/injection, schedule: Q01DX009 (ip), vehicle: saline with Tween-80 103 % of control | endpoint: mean survival time, dose: 2.0 mg/kg/injection, schedule: Q01DX009 (ip), vehicle: saline with Tween-80 103 % of control

c1ccc(-c2oc(-c3ccccc3)c3c(-c4ccccc4)cccc23)cc1
inactive: [8] 90 % of control | endpoint: mean survival time, dose: 100.0 mg/kg/injection, schedule: Q04DX002 (ip), vehicle: saline with Tween-80 87 % of control | endpoint: mean survival time, dose: 200.0 mg/kg/injection, schedule: Q04DX002 (ip), vehicle: saline with Tween-80 87 % of control

CN1C(C(=O)O)CCC1C(=O)O (stereo not given)
inactive: [4] 96 % of control | [6] 98 % of control

C[N+]1(CCO)C2CCC1CC(O)C2 (stereo not given)
inactive: endpoint: mean survival time, dose: 100.0 mg/kg/injection, schedule: Q04DX002 (ip), vehicle: saline 97 % of control | endpoint: mean survival time, dose: 200.0 mg/kg/injection, schedule: Q04DX002 (ip), vehicle: saline 102 % of control

O=[N+]([O-])c1ccc(/C=C/C2(CCl)OCCO2)cc1
inactive: [9] 96 % of control | [10] 92 % of control | [11] 100 % of control

CC[Si](CC)(CC)c1ccc(CCNCCS)s1
inactive: endpoint: mean survival time, dose: 37.5 mg/kg/injection, schedule: Q01DX009 (ip), vehicle: saline 107 % of control | endpoint: mean survival time, dose: 75.0 mg/kg/injection, schedule: Q01DX009 (ip), vehicle: saline 101 % of control

CC(C)CCNC(=O)CI
inactive: endpoint: mean survival time, dose: 100.0 mg/kg/injection, schedule: Q01DX001 (ip), vehicle: saline 101 % of control | endpoint: mean survival time, dose: 200.0 mg/kg/injection, schedule: Q01DX001 (ip), vehicle: saline 95 % of control

CCOC(=O)C(C(=O)c1ccccc1)C(c1ccccc1)C(C(=O)OCC)C(=O)c1ccccc1 (stereo not given)
inactive: [12] 94 % of control | [1] 93 % of control | [13] 94 % of control | [2] 90 % of control | [14] 100 % of control | [7] 98 % of control

CC1(C)C2C3C=CC(C3)C2S1(=O)=O (stereo not given)
inactive: endpoint: mean survival time, dose: 1.25 mg/kg/injection, schedule: Q01DX009 (ip), vehicle: saline with Tween-80 100 % of control | endpoint: mean survival time, dose: 1.25 mg/kg/injection, schedule: Q04DX003 (ip), vehicle: saline with Tween-80 110 % of control | endpoint: mean survival time, dose: 2.5 mg/kg/injection, schedule: Q01DX001 (ip), vehicle: saline 100 % of control | endpoint: mean survival time, dose: 2.5 mg/kg/injection, schedule: Q01DX009 (ip), vehicle: saline with Tween-80 101 % of control | endpoint: mean survival time, dose: 2.5 mg/kg/injection, schedule: Q04DX003 (ip), vehicle: saline with Tween-80 100 % of control | endpoint: mean survival time, dose: 5.0 mg/kg/injection, schedule: Q01DX001 (ip), vehicle: saline 100 % of control | endpoint: mean survival time, dose: 5.0 mg/kg/injection, schedule: Q01DX009 (ip), vehicle: saline with Tween-80 101 % of control | endpoint: mean survival time, dose: 5.0 mg/kg/injection, schedule: Q04DX003 (ip), vehicle: saline with Tween-80 107 % of control

CC(C)(C)C1CCCCC1
inactive: endpoint: mean survival time, dose: 12.5 mg/kg/injection, schedule: Q01DX009 (ip), vehicle: Klucel (hydroxypropylcellulose) (HPC) 90 % of control and 101 % of control | endpoint: mean survival time, dose: 25.0 mg/kg/injection, schedule: Q01DX009 (ip), vehicle: Klucel (hydroxypropylcellulose) (HPC) 90 % of control and 98 % of control | endpoint: mean survival time, dose: 50.0 mg/kg/injection, schedule: Q01DX009 (ip), vehicle: Klucel (hydroxypropylcellulose) (HPC) 93 % of control and 101 % of control | endpoint: mean survival time, dose: 100.0 mg/kg/injection, schedule: Q01DX009 (ip), vehicle: Klucel (hydroxypropylcellulose) (HPC) 88 % of control and 98 % of control | endpoint: mean survival time, dose: 200.0 mg/kg/injection, schedule: Q01DX009 (ip), vehicle: Klucel (hydroxypropylcellulose) (HPC) 91 % of control and 98 % of control | endpoint: mean survival time, dose: 400.0 mg/kg/injection, schedule: Q01DX009 (ip), vehicle: Klucel (hydroxypropylcellulose) (HPC) 93 % of control

O=C(Nc1ccc2c3c(cccc13)CC2)c1cccc([N+](=O)[O-])c1
inactive: [12] 94 % of control | [13] 95 % of control | [14] 97 % of control

COC1CCC(/C=C(\C#N)C2CCC([N+](=O)[O-])CC2)CC1Br (stereo not given)
inactive: endpoint: mean survival time, dose: 25.0 mg/kg/injection, schedule: Q04DX002 (ip), vehicle: saline with Tween-80 105 % of control | [8] 96 % of control

O=C(O)/C=C/C(=O)Nc1cccc(Oc2ccc([N+](=O)[O-])cc2[N+](=O)[O-])c1
inactive: [3] 96 % of control | [5] 100 % of control | endpoint: mean survival time, dose: 400.0 mg/kg/injection, schedule: Q01DX009 (ip), vehicle: saline 98 % of control

CC(=O)Nc1cccc(/C=C/c2ccc([N+](=O)[O-])cc2)c1
inactive: [9] 100 % of control | [10] 103 % of control | [11] 93 % of control

COc1cc(Cl)ccc1NC(=O)OCCOc1c(C(C)C)cccc1C(C)C
inactive: [15] 101 % of control | [12] 101 % of control | [13] 89 % of control

Cc1cccc(CNc2ccc(S(=O)(=O)c3ccc(NCc4cccc(C)n4)cc3)cc2)n1
inactive: [4] 97 % of control | [6] 112 % of control | endpoint: mean survival time, dose: 400.0 mg/kg/injection, schedule: Q04DX003 (ip), vehicle: saline 93 % of control

COc1cc(OC)c(NC(=O)Nc2ccc(CCO)cc2)cc1Cl
inactive: [15] 93 % of control | [12] 86 % of control | [13] 93 % of control

CCOC(=O)c1c(C)cc(C)[nH]c1=O
inactive: endpoint: mean survival time, dose: 100.0 mg/kg/injection, schedule: Q04DX003 (ip), vehicle: saline + alcohol 102 % of control | endpoint: mean survival time, dose: 200.0 mg/kg/injection, schedule: Q04DX003 (ip), vehicle: saline + alcohol 107 % of control | endpoint: mean survival time, dose: 400.0 mg/kg/injection, schedule: Q04DX003 (ip), vehicle: saline + alcohol 113 % of control

CCOC(=O)CN(CC(=O)OCC)c1ccc(C(C)=O)cc1
inactive: [4] 105 % of control | [6] 94 % of control
